We go through twelve molecules from patent publication US20230043672A1, “AROMATIC AMIDO DERIVATIVES AS LPA RECEPTOR 2 INHIBITORS” (CHIESI FARMACEUTICI S.P.A., priority 2019, published 2023).

Read-outs that look alike come from different tables or passages of the source.

The target of the experiment is T1, human recombinant LPA2 expressed in CHO cells (Homo sapiens, UniProt Q9HBW0).
T1 construct: expressed in transfected cells; host or cells: CHO cells (CHO-hLPA2 cell line)
Kind of experiment: FLIPR calcium mobilization assay, LPA2 antagonism in CHO-hLPA2 cells. The experiment is classed as cell-based. Here is the method:
The effectiveness of compounds of the present invention as LPA2 antagonist can be determined at the human recombinant LPA2 expressed in CHO cells, using a FLIPR assay in 384 well format.
CHO-hLPA2 cell lines are cultured in a humidified incubator at 5% CO2 in DMEM/F-12 (1:1) MIXTURE with 2 mM Glutamax, supplemented with 10% of Foetal Bovine Serum, 1 mM Sodium Pyruvate, 11 mM Hepes and 1× Penicillin/Streptomycin. CHO hLPA2 cells are seeded into black walled clear-bottom 384-well plates (#781091, Greiner Bio-One GmbH) at a density of 7,500 cells per well in 50 μl culture media and grown overnight in a 37° C. humidified CO2-incubator. Serial dilutions (1:3 or 1:4, 11 points CRC) of compounds are performed in 100% DMSO at 200× the final concentration. The compounds are diluted 1:50 prior to the experiment with Assay Buffer (20 mM HEPES, 145 mM NaCl, 5 mM KCl, 5.5 mM glucose, 1 mM MgCl2 and 2 mM CaCl2), pH 7.4 containing 0.01% Pluronic F-127) to obtain a solution corresponding to […] the final concentration in the assay (4×, 2% DMSO). The final concentration of DMSO in the assay will be 0.5% in each well. Medium is removed by aspiration and cells are then incubated with 30 μl of a loading solution containing 5 μM of the cytoplasmic Ca2+ indicator Cal-520 AM in Assay Buffer containing 2.5 mM probenecid for 30 min at 37° C. incubator (cell loading). The loaded cell plates are transferred into the FLIPR instrument and calcium responses are monitored during the on-line addition protocols. For testing of compounds, after the cell loading, 10 μl/well of 4× antagonists' solution was added onto the cells. After 30 min pre-incubation (at 37° C.), 10 μl/well of 5× concentrated LPA EC80 was added and Ca2+ mobilization responses was followed during the on-line addition protocol. Intracellular peak fluorescence values subtracted by baseline fluorescence are exported and analysed to determine IC50 values, respectively. The calcium response is expressed as percentage of the maximal inhibition of the EC80 agonist response.
The raw data obtained in unstimulated controls (DMSO, no LPA) are set as “100% inhibition”, while the raw data obtained in negative controls, i.e. in the absence of compounds and stimulating with LPA EC80, are set as “0% inhibition”.
The raw data (peak height expressed as relative fluorescence units) are normalized and transformed into “percent of inhibition”. Curve fitting and pIC50 (−Log IC50) estimations are carried out using a four-parameter logistic model using XLfit Software.

The mark [1] stands for this setting: LPA EC80 stimulation, potency class, read-out: LPA2 IC50.

T1 sequence (Q9HBW0 whole entry): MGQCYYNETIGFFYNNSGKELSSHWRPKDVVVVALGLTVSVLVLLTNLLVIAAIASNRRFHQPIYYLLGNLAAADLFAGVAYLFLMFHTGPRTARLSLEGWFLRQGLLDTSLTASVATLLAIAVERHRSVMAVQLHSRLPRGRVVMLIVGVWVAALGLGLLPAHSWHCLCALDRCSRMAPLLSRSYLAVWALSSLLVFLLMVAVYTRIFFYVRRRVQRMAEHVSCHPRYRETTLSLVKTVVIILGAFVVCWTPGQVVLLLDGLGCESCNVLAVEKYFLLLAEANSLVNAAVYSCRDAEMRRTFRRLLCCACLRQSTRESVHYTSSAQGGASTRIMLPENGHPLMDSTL

One may read the IC50 as the concentration that inhibits the measured activity by half. For `Cc1cc(-c2ccc(S(=O)(=O)N3CCN(C[C@H](C)NC(=O)c4cc(-c5sc(C)nc5C)ccn4)CC3)s2)on1` [Example 3, 4-(2,4-dimethyl-1,3-thiazol-5-yl)-N-[(2S)-1-(4-{[5-(3-methyl-1,2-oxazol-5-yl)thiophen-2-yl]sulfonyl}piperazin-1-yl)propan-2-yl]pyridine-2-carboxamide], the concentration for half-maximal inhibition (IC50) under setting [1] was 10 to 100 nM.

Turning to `COC(=O)Nc1nc(C)c(S(=O)(=O)N2CCN(C[C@H](C)NC(=O)c3cc(-c4cccc(CN(C)C)c4)cs3)CC2)s1` [Example 10, methyl N-[5-({4-[(2S)-2-[(4-{3-[(dimethylamino)methyl]phenyl}thiophen-2-yl)formamido]propyl]piperazin-1-yl}sulfonyl)-4-methyl-1,3-thiazol-2-yl]carbamate], the IC50 under setting [1] is < 1000 nM.

Take `COC(=O)Nc1nc(C)c(S(=O)(=O)N2CCN(C[C@H](C)NC(=O)c3cccc(-c4cccc(CN(C)C)c4)c3)CC2)s1` [Example 7, methyl N-[5-({4-[(2S)-2-({3′-[(dimethylamino)methyl]-[1,1′-biphenyl]-3-yl}formamido)propyl]piperazin-1-yl}sulfonyl)-4-methyl-1,3-thiazol-2-yl]carbamate]: the IC50 under setting [1] was in the range of 10 to 100 nM.

As for `Cc1nc(C)c(-c2cccc(C(=O)N[C@@H](C)CN3CCN(S(=O)(=O)c4ccc5[nH]c(=O)sc5c4)CC3)c2)s1` [Example 11, 3-(2,4-dimethyl-1,3-thiazol-5-yl)-N-[(2S)-1-{4-[(2-oxo-2,3-dihydro-1,3-benzothiazol 6-yl)sulfonyl]piperazin-1-yl}propan-2-yl]benzamide], under setting [1], the 50% inhibitory concentration (IC50) was < 1000 nM.

With `COC(=O)Nc1nc(C)c(S(=O)(=O)N2CCN(C[C@H](C)NC(=O)c3cccc(-c4sc(C)nc4C)n3)CC2)s1` [Example 6, methyl N-[5-({4-[(2S)-2-{[6-(2,4-dimethyl-1,3-thiazol-5-yl)pyridin-2-yl]formamido}propyl]piperazin-1-yl}sulfonyl)-4-methyl-1,3-thiazol-2-yl]carbamate], the IC50 under setting [1] was < 1000 nM.

`COC(=O)Nc1nc(C)c(S(=O)(=O)N2CCN(C[C@H](C)Nc3ncnc4ncccc34)CC2)s1` [Comparative Example A, Methyl (S)-(4-methyl-5-((4-(2-(pyrido[2,3-d]pyrimidin-4 ylamino)propyl)piperazin-1-yl)sulfonyl)thiazol-2-yl)carbamate, reference compound]: the IC50 (compound called inactive on receptor LPA2, read-out: IC50 on LPA2 receptor) was > 3000 nM.

Turning to `COC(=O)Nc1nc(C)c(S(=O)(=O)N2CCN(C[C@H](C)NC(=O)c3cccc(-c4cn(C)nc4C(F)(F)F)c3)CC2)s1` [Example 9, methyl N-[4-methyl-5-({4-[(2S)-2-({3-[1-methyl-3-(trifluoromethyl)-1H-pyrazol-4-yl]phenyl}formamido)propyl]piperazin-1-yl}sulfonyl)-1,3-thiazol-2-yl]carbamate], the IC50 under setting [1] is < 1000 nM.

For the molecule `COC(=O)Nc1nc(C)c(S(=O)(=O)N2CCN(C[C@H](C)NC(=O)c3cccc(-c4ccc(C)nc4)c3)CC2)s1` [Example 8, methyl N-[4-methyl-5-({4-[(2S)-2-{[3-(6-methylpyridin-3-yl)phenyl] formamido}propyl]piperazin-1-yl}sulfonyl)-1,3-thiazol-2-yl]carbamate], the half-inhibitory concentration (IC50) under setting [1] fell in the range of 10 to 100 nM.

Consider `COC(=O)Nc1nc(C)c(S(=O)(=O)N2CCN(C[C@H](C)NC(=O)c3cc(-c4sc(C)nc4C)ccc3F)CC2)s1` [Example 5, methyl N-[5-({4-[(2S)-2-{[5-(2,4-dimethyl-1,3-thiazol-5-yl)-2-fluorophenyl]formamido}propyl]piperazin-1-yl}sulfonyl)-4-methyl-1,3-thiazol-2-yl]carbamate], for which the half-maximal inhibitory concentration (IC50) under setting [1] lay within 10 to 100 nM.

`COC(=O)Nc1nc(C)c(S(=O)(=O)N2CCN(C[C@H](C)NC(=O)c3cc(-c4sc(C)nc4C)ccn3)CC2)s1` [Example 4, methyl N-[5-({4-[(2S)-2-{[4-(2,4-dimethyl-1,3-thiazol-5-yl)pyridin-2-yl]formamido}propyl]piperazin-1-yl}sulfonyl)-4-methyl-1,3-thiazol-2-yl]carbamate]: the half-inhibitory concentration (IC50) under setting [1] is < 1000 nM.

For the molecule `COC(=O)Nc1nc(C)c(S(=O)(=O)N2CCN(C[C@H](C)NC(=O)c3cccc(-c4sc(C)nc4C)c3)CC2)s1` [Example 1, methyl N-[5-({4-[(2S)-2-{[3-(2,4-dimethyl-1,3-thiazol-5-yl)phenyl]formamido}propyl]piperazin-1-yl}sulfonyl)-4-methyl-1,3-thiazol-2-yl]carbamate], the 50% inhibitory concentration (IC50) under setting [1] is < 10 nM.

In the case of `Cc1cc(-c2ccc(S(=O)(=O)N3CCN(C[C@H](C)NC(=O)c4cc(-c5sc(C)nc5C)ccc4F)CC3)s2)on1` [Example 2, 5-(2,4-dimethyl-1,3-thiazol-5-yl)-2-fluoro-N-[(2 S)-1-(4-{[5-(3-methyl-1,2-oxazol-5-yl)thiophen-2-yl]sulfonyl}piperazin-1-yl)propan-2-yl]benzamide], the IC50 under setting [1] fell in the range of 10 to 100 nM.
